The values below come from patent publication US8637504B2, “Sulfur-containing heterocyclic derivative having beta secretase inhibitory activity” (Shionogi & Co., Ltd., priority 2008, dated 2014).

SMILES strings stand for the structures. Like-named read-outs stand apart in the source and are kept apart here. A value given as a limit tells only on which side of the number the result lay.

The target in one data set is Recombinant human BACE-1 (Homo sapiens (Human), UniProt P56817). The data set is described as follows: Assay of β-secretase-inhibiting activity.
Chain of Recombinant human BACE-1 (P56817 46-501): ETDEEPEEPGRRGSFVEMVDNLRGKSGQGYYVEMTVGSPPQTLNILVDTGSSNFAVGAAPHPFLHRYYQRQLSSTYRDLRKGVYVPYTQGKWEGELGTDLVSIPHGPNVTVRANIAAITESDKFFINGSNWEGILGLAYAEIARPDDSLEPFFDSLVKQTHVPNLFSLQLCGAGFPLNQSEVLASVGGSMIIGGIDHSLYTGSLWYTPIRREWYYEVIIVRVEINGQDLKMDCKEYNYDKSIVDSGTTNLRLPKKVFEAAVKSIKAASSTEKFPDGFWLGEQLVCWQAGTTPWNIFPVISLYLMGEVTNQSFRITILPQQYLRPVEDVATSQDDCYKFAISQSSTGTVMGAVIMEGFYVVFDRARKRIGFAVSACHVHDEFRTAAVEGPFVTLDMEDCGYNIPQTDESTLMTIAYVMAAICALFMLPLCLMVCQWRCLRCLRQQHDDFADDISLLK
Another data set in a line: Solubility test. Particulars: pH 1.2, simulated gastric fluid, kinetic from dmso stock; JP-I medium, turbidity after 4 hours. Format: physicochemical. How it is done: A 2-fold dilution series (12 points) of a 10 mM solution of a test compound in DMSO was added to a medium (JP-I, JP-II) (2%), and solubility was assessed by 3 stages (High; >40 Medium; 3-40 μM, Low; <3 μM) from a turbidity after 4 hours (crystallization information).

Another data set has as its target CYP2C19 (Homo sapiens (Human), UniProt P33261). The data set is described as follows: CYP inhibition test (CYP2C19). The data set is classed as in vitro ADME. Particulars: pooled human hepatic microsome, mephenyloin 4′-hydroxylation. The protocol: (§1) After the centrifugation at 3000 rpm for 15 minutes, resorufin (CYP1A2 metabolite) in the supernatant was quantified by a fluorescent multilabel counter and tributamide hydroxide (CYP2CP metabolite), mephenyloin 4′ hydroxide (CYP2C19 metabolite), […] (CYP2D6 metabolite), and terfenadine alcohol (CYP3A4 metabolite) were quantified by LC/MS/MS. Addition of only DMSO being a solvent dissolving a drug to a reaction system was adopted as a control (100%), remaining activity (%) was calculated at each concentration of a test drug added as the solution and […] was calculated by reverse presumption by a logistic model using a concentration and an inhibition rate.

For data set [1], the target named is T1, CYP3A4 (Homo sapiens (Human), UniProt P08684). Briefly: CYP inhibition test (CYP3A4). The data set is classed as in vitro ADME. Particulars: pooled human hepatic microsome, terfenedine hydroxylation. How it is done:
as §1

In another data set the target is CYP2D6 (Homo sapiens (Human), UniProt P10635). Briefly: CYP inhibition test (CYP2D6). The data set is classed as in vitro ADME. Particulars: pooled human hepatic microsome, dextromethorphan O-demethylation. The protocol:
as §1

The target of the next data set is CYP2C9 (Homo sapiens (Human), UniProt P11712). The data set is described as follows: CYP inhibition test (CYP2C9). Format: in vitro ADME. Conditions: pooled human hepatic microsome, tolbutamide methyl-hydroxylation. The protocol: as §1
Chain of CYP2C9 (P11712 whole entry): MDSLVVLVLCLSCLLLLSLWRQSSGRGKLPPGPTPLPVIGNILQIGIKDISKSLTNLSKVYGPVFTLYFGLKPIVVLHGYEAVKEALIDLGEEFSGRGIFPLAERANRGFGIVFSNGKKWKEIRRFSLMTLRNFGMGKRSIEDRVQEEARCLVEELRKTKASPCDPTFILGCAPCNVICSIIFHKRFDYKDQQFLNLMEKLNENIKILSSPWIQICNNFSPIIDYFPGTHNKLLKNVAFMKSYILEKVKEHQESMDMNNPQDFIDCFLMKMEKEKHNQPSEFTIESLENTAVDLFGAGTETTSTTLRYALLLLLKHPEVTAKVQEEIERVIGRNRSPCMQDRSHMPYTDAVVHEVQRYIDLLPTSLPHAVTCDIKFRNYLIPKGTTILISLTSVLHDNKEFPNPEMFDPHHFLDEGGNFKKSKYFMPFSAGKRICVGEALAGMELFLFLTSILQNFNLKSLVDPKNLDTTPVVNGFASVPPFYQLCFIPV
The next data set concerns the target CYP1A2 (Homo sapiens (Human), UniProt P05177). The data set is described as follows: CYP inhibition test (CYP1A2). The data set is classed as in vitro ADME. Particulars: pooled human hepatic microsome, 7-ethoxyresorufin O-deethylation. How it is done: as §1
Data set [2] in a line: Metabolism stability test. Particulars: human liver microsomes 0.5 mg protein/mL, NADPH, 37° C., 30 minutes. The data set is classed as in vitro ADME. How it is done: Using a commercially available pooled human hepatic microsomes, a test compound was reacted for a constant time, a remaining rate was calculated by comparing a reacted sample and an unreacted sample, thereby, a degree of metabolism in liver was assessed.
A reaction was performed (oxidative reaction) at 37° C. for 0 minute or 30 minutes in the presence of 1 mmol/L NADPH in 0.2 mL of a buffer (50 mmol/L Tris-HCl pH 7.4, 150 mmol/L potassium chloride, 10 mmol/L magnesium chloride) containing 0.5 mg protein/mL of human liver microsomes. After the reaction, 50 μl, of the reaction solution was added to 100 μL of a methanol/acetonitrile=1/1 (v/v), mixed and centrifuged at 3000 rpm for 15 minutes. The test compound in the supernatant was quantified by LC/MS/MS, and a remaining amount of the test compound after the reaction was calculated, letting a compound amount at 0 minute reaction time to be 100%.
On the technique in general: Liver microsomes are vesicles of endoplasmic reticulum, rich in cytochrome P450 enzymes.

In data set [3] the target is human ether-a-go-go related gene (hERG) channel (Homo sapiens (Human), UniProt Q12809). Briefly: hERG test. The data set is classed as cell-based. Conditions: HEK293 cells expressing hERG, patch clamp, applied 10 minutes. The source says:
For the purpose of assessing risk of an electrocardiogram QT interval prolongation, effects on delayed rectifier K+ current (IKr), which plays an important role in the ventricular repolarization process, was studied using HEK293 cells expressing human ether-a-go-go related gene (hERG) channel.
After a cell was retained at a membrane potential of −80 mV by whole cell patch clamp method using an automated patch clamp system (PatchXpress 7000A, Axon Instruments Inc.), IKr induced by depolarization pulse stimulation at +50 mV for 2 seconds and, further, repolarization pulse stimulation at −50 mV for 2 seconds was recorded. […] From the recording IKr, an absolute value of the tail peak current was measured based on the current value at the resting membrane potential using an analysis software (DataXpress ver.1, Molecular Devices Corporation). Further, the % inhibition relative to the tail peak current before application of the test substance was calculated, and compared with the vehicle-applied group (0.1% dimethyl sulfoxide solution) to assess influence of the test substance on IKr.
A general note: The hERG channel carries a current that helps repolarise heart muscle cells.

Data set [4] has as its target T1, CYP3A4. The data set is described as follows: CYP3A4 fluorescent MBI test. Particulars: pre-reaction time 0 or 30 minutes, substrate 7-BFC. The data set is classed as in vitro ADME. How it is done: The CYP3A4 fluorescent MBI test is a test of investigating enhancement of CYP3A4 inhibition of a compound by a metabolism reaction, and the test was performed using, as CYP3A4 enzyme expressed in Escherichia coli and employing, as an index, a reaction in which 7-benzyloxytrifluoromethylchmarin (7-BFC) is debenzylated by the CYP3A4 enzyme to produce a metabolite, 7-hydroxytrifluoromethylchmarin (HFC) emitting fluorescent light.
The reaction conditions were as follows: substrate, 5.6 μmol/L 7-BFC; pre-reaction time, 0 or 30 minutes; reaction time, 15 minutes; reaction temperature, 25° C. […]
An enzyme in a K-Pi buffer (pH 7.4) and a test drug solution as a pre-reaction solution were added to a 96-well plate at the composition of the pre-reaction, a part of it was transferred to another 96-well plate so that it was 1/10 diluted by a substrate in a K-Pi buffer, NADPH as a co-factor was added to initiate a reaction as an index (without preincubation) and, after a predetermined time of a reaction, acetonitrile/0.5 mol/L Tris (trishydroxyaminomethane)=4/1 was added to stop the reaction. […] For the plate on which each index reaction had been performed, a fluorescent value of 7-HFC which is a metabolite was measured with a fluorescent plate reader. […]

Setting [5] is: Recombinant human BACE-1 7.4 nM, substrate peptide 18 nM, pH 5.0, 30° C. 3 hours.

Chain of CYP1A2 (P05177 whole entry): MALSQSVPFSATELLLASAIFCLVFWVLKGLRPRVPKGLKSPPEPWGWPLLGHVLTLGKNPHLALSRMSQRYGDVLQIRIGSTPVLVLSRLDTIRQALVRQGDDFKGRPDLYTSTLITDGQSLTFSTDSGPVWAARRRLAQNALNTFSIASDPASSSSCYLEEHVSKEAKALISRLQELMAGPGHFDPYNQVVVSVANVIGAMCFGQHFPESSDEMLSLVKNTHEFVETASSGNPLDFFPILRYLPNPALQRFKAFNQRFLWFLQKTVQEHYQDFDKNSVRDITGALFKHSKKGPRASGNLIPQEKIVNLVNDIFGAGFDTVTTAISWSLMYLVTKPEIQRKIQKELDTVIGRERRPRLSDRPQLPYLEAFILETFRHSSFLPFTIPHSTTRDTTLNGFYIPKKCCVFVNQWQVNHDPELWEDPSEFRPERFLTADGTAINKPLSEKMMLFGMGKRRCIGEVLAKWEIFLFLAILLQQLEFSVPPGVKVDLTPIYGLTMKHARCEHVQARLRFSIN
Chain of CYP2D6 (P10635 whole entry): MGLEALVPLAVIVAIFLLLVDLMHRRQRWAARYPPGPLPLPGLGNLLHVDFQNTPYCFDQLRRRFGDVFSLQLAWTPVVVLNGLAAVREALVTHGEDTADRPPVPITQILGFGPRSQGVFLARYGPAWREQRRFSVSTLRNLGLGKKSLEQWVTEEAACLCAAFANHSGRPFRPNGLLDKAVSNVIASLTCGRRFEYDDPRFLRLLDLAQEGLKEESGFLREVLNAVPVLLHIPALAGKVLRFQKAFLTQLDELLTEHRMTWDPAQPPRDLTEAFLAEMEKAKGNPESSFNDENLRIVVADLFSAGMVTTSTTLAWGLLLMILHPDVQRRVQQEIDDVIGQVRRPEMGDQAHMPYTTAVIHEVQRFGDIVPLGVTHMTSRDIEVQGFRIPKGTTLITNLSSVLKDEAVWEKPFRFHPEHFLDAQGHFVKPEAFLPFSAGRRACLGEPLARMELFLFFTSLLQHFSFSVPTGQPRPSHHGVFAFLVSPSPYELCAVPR
T1 sequence (P08684 whole entry): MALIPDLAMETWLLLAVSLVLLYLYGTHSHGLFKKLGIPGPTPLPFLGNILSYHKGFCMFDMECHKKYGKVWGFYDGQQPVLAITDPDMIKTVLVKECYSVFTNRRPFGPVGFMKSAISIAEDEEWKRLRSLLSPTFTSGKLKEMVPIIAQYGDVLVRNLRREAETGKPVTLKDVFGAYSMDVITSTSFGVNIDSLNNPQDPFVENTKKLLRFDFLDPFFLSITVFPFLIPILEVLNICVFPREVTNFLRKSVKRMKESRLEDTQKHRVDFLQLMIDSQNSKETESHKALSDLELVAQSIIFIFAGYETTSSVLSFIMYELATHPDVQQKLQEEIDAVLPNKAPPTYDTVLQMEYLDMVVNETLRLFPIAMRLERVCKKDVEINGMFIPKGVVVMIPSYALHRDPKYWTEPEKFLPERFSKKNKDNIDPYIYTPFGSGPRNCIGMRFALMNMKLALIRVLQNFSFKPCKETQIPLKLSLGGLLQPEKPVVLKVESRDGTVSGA
Chain of CYP2C19 (P33261 whole entry): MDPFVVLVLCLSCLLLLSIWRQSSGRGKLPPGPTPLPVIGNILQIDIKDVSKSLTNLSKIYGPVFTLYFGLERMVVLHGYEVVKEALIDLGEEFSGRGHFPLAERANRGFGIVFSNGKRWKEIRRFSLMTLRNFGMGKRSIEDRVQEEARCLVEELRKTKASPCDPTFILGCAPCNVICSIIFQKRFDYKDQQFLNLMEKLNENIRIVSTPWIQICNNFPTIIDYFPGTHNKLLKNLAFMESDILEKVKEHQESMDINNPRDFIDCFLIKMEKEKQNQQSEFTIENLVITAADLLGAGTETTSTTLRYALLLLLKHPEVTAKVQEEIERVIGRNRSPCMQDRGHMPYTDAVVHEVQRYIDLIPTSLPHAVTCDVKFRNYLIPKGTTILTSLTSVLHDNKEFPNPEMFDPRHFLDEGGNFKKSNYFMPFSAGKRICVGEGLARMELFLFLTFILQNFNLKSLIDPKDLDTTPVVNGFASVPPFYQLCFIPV
Chain of human ether-a-go-go related gene (hERG) channel (Q12809 whole entry): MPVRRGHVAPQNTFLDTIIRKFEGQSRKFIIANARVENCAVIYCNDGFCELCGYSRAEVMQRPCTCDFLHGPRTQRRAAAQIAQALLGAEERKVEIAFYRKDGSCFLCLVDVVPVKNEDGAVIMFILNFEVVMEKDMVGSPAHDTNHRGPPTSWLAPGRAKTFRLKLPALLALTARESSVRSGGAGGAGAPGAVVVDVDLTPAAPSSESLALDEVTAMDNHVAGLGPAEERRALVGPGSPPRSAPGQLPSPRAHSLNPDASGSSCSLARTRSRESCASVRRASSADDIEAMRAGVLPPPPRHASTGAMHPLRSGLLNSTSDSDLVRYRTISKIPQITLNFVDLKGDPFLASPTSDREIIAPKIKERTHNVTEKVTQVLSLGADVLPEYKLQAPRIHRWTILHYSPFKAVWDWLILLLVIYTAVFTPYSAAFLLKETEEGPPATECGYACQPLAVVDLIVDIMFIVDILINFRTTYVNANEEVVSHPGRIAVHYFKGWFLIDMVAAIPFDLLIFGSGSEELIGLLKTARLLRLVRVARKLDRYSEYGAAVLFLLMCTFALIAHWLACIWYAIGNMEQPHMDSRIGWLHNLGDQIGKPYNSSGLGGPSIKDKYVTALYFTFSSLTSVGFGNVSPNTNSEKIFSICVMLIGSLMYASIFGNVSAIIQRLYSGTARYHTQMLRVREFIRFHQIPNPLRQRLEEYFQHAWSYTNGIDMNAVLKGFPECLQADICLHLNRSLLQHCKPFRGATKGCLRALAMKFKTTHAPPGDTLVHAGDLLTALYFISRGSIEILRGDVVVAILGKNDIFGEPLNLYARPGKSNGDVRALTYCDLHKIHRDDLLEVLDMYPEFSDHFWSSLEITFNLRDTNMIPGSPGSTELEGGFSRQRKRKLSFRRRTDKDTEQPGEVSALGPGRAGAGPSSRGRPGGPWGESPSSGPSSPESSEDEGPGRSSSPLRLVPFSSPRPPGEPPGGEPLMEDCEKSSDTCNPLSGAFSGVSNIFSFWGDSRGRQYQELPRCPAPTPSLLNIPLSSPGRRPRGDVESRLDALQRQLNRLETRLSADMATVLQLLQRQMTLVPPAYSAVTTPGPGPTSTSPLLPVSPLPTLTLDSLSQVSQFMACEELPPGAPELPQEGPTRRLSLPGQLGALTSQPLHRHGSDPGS

For orientation: IC50 means the midpoint of a concentration-inhibition curve. The solubility is the concentration that dissolves in the medium under given conditions. A high value points to a readily soluble substance. Take `C[C@@]1(c2cc(NC(=O)c3ccc(OCCF)cn3)ccc2F)C=CSC(N)=N1` [Compound 32]: the IC50 on Recombinant human BACE-1 was at most 1 µM. This compound yielded a solubility at 4 h in “Solubility test” of over 40 µM.
With `Cc1cc(C(=O)Nc2ccc(F)c([C@]3(C)C=CSC(N)=N3)c2)n(C)n1` [Compound 35], the half-maximal inhibitory concentration (IC50) on Recombinant human BACE-1 (setting [5]) was 0.096 µM; against CYP2C19, over 20 µM; against CYP3A4 [1], over 20 µM; against CYP2D6, over 20 µM; at CYP2C9, over 20 µM; at CYP1A2, over 20 µM.
In the case of `C[C@@]1(c2cc(NC(=O)c3cnc(-c4ncco4)cn3)ccc2F)C=CSC(N)=N1` [Compound 38], the IC50 at Recombinant human BACE-1 (setting [5]) was 0.304 µM. Moreover, the “remaining amount of the test compound after the reaction” value (“remaining amount of the test compound” below) in [2] amounted to 95%.
`Cn1ccnc1COc1cnc(C(=O)Nc2ccc(F)c([C@]3(C)C=CSC(N)=N3)c2)cn1` [Compound 60]: the IC50 at Recombinant human BACE-1 (setting [5]) was found to be 0.243 µM. The same compound had a solubility at 4 h in the data set “Solubility test” of over 40 µM.
Regarding `C[C@@]1(c2cc(NC(=O)c3cc4n(n3)CCN4)ccc2F)C=CSC(N)=N1` [Compound 63], the IC50 is 0.435 µM on Recombinant human BACE-1 (setting [5]); over 20 µM on CYP2C19; over 20 µM on CYP3A4 [1]; over 20 µM on CYP2D6; over 20 µM on CYP2C9; over 20 µM on CYP1A2.
Consider `CC(C)(C)S(=O)(=O)Nc1cnc(C(=O)Nc2ccc(F)c([C@]3(C)C=CSC(N)=N3)c2)cn1` [Compound 68], for which the IC50 against CYP2C19, against CYP3A4 [1], against CYP2D6, on CYP2C9 and at CYP1A2 was over 20 µM throughout.
Regarding `C[C@@]1(c2cc(NC(=O)c3cnc(-n4cncn4)cn3)ccc2F)C=CSC(N)=N1` [Compound 70], the IC50 on Recombinant human BACE-1 (setting [5]) was determined as 0.036 µM. This compound also displayed a solubility at 4 h in the data set “Solubility test” of over 40 µM. For the same compound, the “remaining amount of the test compound” value in [2] is on record as 94%.
Consider `CNC(=O)c1ccc(-c2ccc(F)c([C@]3(C)C=CSC(N)=N3)c2)cn1` [Compound 92], for which, in data set [3], the “% inhibition of tail peak current (IKr)” value was 7.9%.
For the compound `C=C1C[C@@](C)(c2cc(NC(=O)c3cnc(OC)cn3)cnc2Cl)N=C(N)S1` [Compound 99], the IC50 on Recombinant human BACE-1 (setting [5]) was 0.014 µM. The compound also came in with an IC50 difference (with/without preincubation) at CYP3A4 [4] of under 3 µM.
On to `C=C1C[C@@](C)(c2cc(NC(=O)c3cnc(OC)cn3)cnc2C)N=C(N)S1` [Compound 102], for which the half-inhibitory concentration (IC50) at Recombinant human BACE-1 (setting [5]) is 0.036 µM. In addition, in [3], the “% inhibition of tail peak current (IKr)” value stood at 2.3%.
As to `C=C1C[C@@](C)(c2cncc(NC(=O)c3cnc(OC)cn3)c2)N=C(N)S1` [Compound 104], the IC50 on Recombinant human BACE-1 (setting [5]) was 0.063 µM; at CYP2C19, over 20 µM; against CYP3A4 [1], over 20 µM; at CYP2D6, over 20 µM; at CYP2C9, over 20 µM; against CYP1A2, over 20 µM.
For the compound `C=C1C[C@@](C)(c2cncc(NC(=O)c3ncc(C(F)(F)F)cc3Cl)c2)N=C(N)S1` [Compound 106], the IC50 at Recombinant human BACE-1 (setting [5]) was 0.102 µM; against CYP2C19, over 20 µM; on CYP3A4 [1], over 20 µM; against CYP2D6 it was over 20 µM; against CYP2C9 it was over 20 µM; on CYP1A2, over 20 µM.
For the compound `CC1=C[C@@](C)(c2cncc(NC(=O)c3ccc(C#N)cn3)c2)N=C(N)S1` [Compound 108], the IC50 on Recombinant human BACE-1 was at most 1 µM. This compound had an IC50 difference (with/without preincubation) at CYP3A4 [4] of under 3 µM.
Consider `C[C@@]1(c2cccc(-c3cncc(C#N)c3)c2)CCSC(N)=N1` [Compound 212], for which the “remaining amount of the test compound” value in [2] worked out at 95%.
The same measure, in the same setting: under `C[C@@]1(c2cccc(-c3ccc(F)nc3F)c2)CCSC(N)=N1` [Compound 213] stands 98%.
